From the supplement of paper PMC11208160

Assay: recombinant barcode read abundance after kanamycin selection (control-corrected) (log10(CPM+1)); higher = more efficient recombination; sequences stand for … in AGTGCAGAGAAAATCGGCCAGTTTTCTCTGCCTGCAGTCCGCATGCCGT…AGATTTATGCAGCGGACTGCCTTTCTCCCAAAGTGATAAACCGGACAGTATCATGGACCGGTTTTCCCGGTAATCCGTATTTGCAAGGTTGGTTTCACT; site = the 11-nt target
How it was run: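 For this pooled screen, each oligo contained a promoter, a target, a barcode and the J23119-driven first 104 bases of the bridge RNA. Gibson cloning placed it into a vector supplying the remaining 73 bp and a T7-inducible recombinase, and the pool was co-electroporated into E. coli with a donor plasmid. Recombination efficiency is derived from barcode counts per million at recombinant junctions after averaging and control correction, and is expressed on a log scale as log10(CPM+1), with selection on chloramphenicol/ampicillin/kanamycin plus 0.1 mM IPTG against a chloramphenicol/ampicillin LB agar control.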
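Further: IS621 recombinase and bridge RNA in Escherichia coli cells.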

Sequence | recombinant barcode read abundance (log10)
AGTGCGTCTTGGGTTCTAACCTGTTGCCT (site AGTGCGTCTAG) | 1.52
TAAAGAGCTTGGGTTCTAACCTGTTGCGG (site TAGAGAGCTCC) | 0.109
CTAGGAACTTGGGTTCTAACCTGTTGCTA (site AGGTTCCCTCC) | 0.454
ACATTAGCTTGGGTTCTAACCTGTTGCTG (site ACAGTAGCTCA) | 0.18
AATGGGGCTTGGGTTCTAACCTGTTGCTG (site TATGGAGCTCA) | 0.0813
CACGATCCTTGGGTTCTAACCTGTTGCTT (site CACGATCCTAA) | 1.52
CGAACCTCTTGGGTTCTAACCTGTTGCCG (site CGAATCCCTCG) | 0.0358
ATCACACCTTGGGTTCTAACCTGTTGCCT (site CTCACACCTAG) | 0.102
TTCTATGCTTGGGTTCTAACCTGTTGCCT (site TTCTATGCTAG) | 0.187
CTATGACCTTGGGTTCTAACCTGTTGCTT (site CTATGACCTAG) | 1.26
GTATCATCTTGGGTTCTAACCTGTTGCCT (site GTATCACCTAG) | 0.942
GGTGGGTCTTGGGTTCTAACCTGTTGCAT (site GGTGGGTCTAT) | 2.25
TGGAGCCCTTGGGTTCTAACCTGTTGCAA (site TGGAGCCCTAT) | 0.0946
ACTTCCACTTGGGTTCTAACCTGTTGCCT (site ACTTCCACTAG) | 0.613
GTTTGACCTTGGGTTCTAACCTGTTGCTT (site GTTTGCCCTAA) | 0.229
CTATATACTTGGGTTCTAACCTGTTGCTT (site CTAAATACTAA) | 0.088
CTCTCATCTTGGGTTCTAACCTGTTGCCT (site CTCTCATCTAG) | 0.149
GGTATGACTTGGGTTCTAACCTGTTGCCT (site AGTATGACTAG) | 0.595
GAGATGTCTTGGGTTCTAACCTGTTGCCT (site GCGATGTCTAG) | 0.147
ACATGTCCTTGGGTTCTAACCTGTTGCTT (site ACATGTCCTAT) | 0.287
GCTTGGCCTTGGGTTCTAACCTGTTGCCT (site CCTTGGTCTAG) | 0.211
TACCCGTCTTGGGTTCTAACCTGTTGCTT (site TACCTGTCTAA) | 0.0134

Sequence | recombinant barcode read abundance (log10)
TTAGGGTCTTGGGTTCTAACCTGTTGCCT (site TTAGGGGCTAG) | 0.0984
GTGAGGTCTTGGGTTCTAACCTGTTGCCT (site GTGAGGTCTAT) | 0.442
TACTCAACTTGGGTTCTAACCTGTTGCCT (site TACTAAACTAG) | 0.376
CTCCATGCTTGGGTTCTAACCTGTTGCCT (site CTCCATCCTAG) | 0.312
CATCCGTCTTGGGTTCTAACCTGTTGCCT (site CATCCGCCTAG) | 0.0457
TATAATGCTTGGGTTCTAACCTGTTGCGT (site ATCGGACCTCA) | 0.15
AGTTAATCTTGGGTTCTAACCTGTTGCTT (site AGTTAATCTAA) | 0.0371
AGCTAATCTTGGGTTCTAACCTGTTGCTT (site GAGCTGCCTTG) | 0.0324
TCTAACCCTTGGGTTCTAACCTGTTGCGG (site TCCAACCCTCC) | 0.0105
AGCAGAGCTTGGGTTCTAACCTGTTGCGG (site AGCAGAGCTCC) | 1.95
GCGTCCTCTTGGGTTCTAACCTGTTGCTT (site GCGTCCTCTAA) | 0.636
CACCAACCTTGGGTTCTAACCTGTTGCCT (site CACCAACCTAG) | 0.313
AACAATGCTTGGGTTCTAACCTGTTGCCT (site AACAATGCTAG) | 0.713
CATCCGTCTTGGGTTCTAACCTGTTGCCT (site CATCCGGCTAG) | 0.131
TCACGTCCTTGGGTTCTAACCTGTTGCGG (site TCACGTCCTCC) | 1.3
CTGCGTGCTTGGGTTCTAACCTGTTGCCT (site CTGCGTGCTAG) | 0.83
GATGTAACTTGGGTTCTAACCTGTTGCCT (site GAGGTAACTAG) | 0.0797
AGAACAACTTGGGTTCTAACCTGTTGCCT (site AGCACAACTAG) | 0.035
GAGCCGCCTTGGGTTCTAACCTGTTGCAT (site GGGACGCCTAT) | 0.0756
TATCCGACTTGGGTTCTAACCTGTTGCCA (site TATCCGACTAG) | 0.56
GATGTAACTTGGGTTCTAACCTGTTGCCT (site GATGTAACTAG) | 0.956
ACCGTAGCTTGGGTTCTAACCTGTTGCCT (site ACCGTAGCTAG) | 1.07

Sequence | recombinant barcode read abundance (log10)
CATGGGTCTTGGGTTCTAACCTGTTGCCT (site CATGGGTCTAG) | 1.45
TTAGAGGCTTGGGTTCTAACCTGTTGCCT (site TTAGAGGCTAG) | 1.13
CGGAATCCTTGGGTTCTAACCTGTTGCAT (site CGGAATCCTAG) | 0.29
CTCCCTGCTTGGGTTCTAACCTGTTGCCT (site CTCCCTGCTAG) | 1.1
ATGAGGTCTTGGGTTCTAACCTGTTGCTC (site ATGAGCTCTTA) | 0.194
CACCTGACTTGGGTTCTAACCTGTTGCCG (site CACCTGACTCG) | 0.599
TGAAACTCTTGGGTTCTAACCTGTTGCGG (site GTCGGTCCTGT) | 0.27
AACCTTACTTGGGTTCTAACCTGTTGCCT (site ATCCTTACTAG) | 0.0245
TGGTGTACTTGGGTTCTAACCTGTTGCCT (site TGGGGTACTAG) | 0.143
GGGGCTTCTTGGGTTCTAACCTGTTGCCT (site GGGGCTTCTAG) | 0.919
GGGTAAACTTGGGTTCTAACCTGTTGCCT (site GGGTAAACTAG) | 0.953
TTGAGGACTTGGGTTCTAACCTGTTGCGT (site TTGAGGACTAC) | 2.22
TAGCACCCTTGGGTTCTAACCTGTTGCCG (site TAGCACCCTTG) | 0.356
GAGCGCACTTGGGTTCTAACCTGTTGCGG (site GAGCGCACTCT) | 1.51
AGTGAATCTTGGGTTCTAACCTGTTGCCT (site AGTGAATCTAG) | 0.541
CGAGGGCCTTGGGTTCTAACCTGTTGCCT (site CGAGGGTCTAG) | 0.345
TATATATCTTGGGTTCTAACCTGTTGCAT (site TATATATCTAT) | 0.23
ATGCAACCTTGGGTTCTAACCTGTTGCCT (site ATGCAAGCTAG) | 0.362
GGTGGGTCTTGGGTTCTAACCTGTTGCAT (site GGTGGGTCTAG) | 0.805
TACCCGTCTTGGGTTCTAACCTGTTGCTT (site TACCAGTCTAA) | 0
CGAGGGACTTGGGTTCTAACCTGTTGCCT (site CGAGGGACTAG) | 1.81
GGAGCTTCTTGGGTTCTAACCTGTTGCCT (site GTACCTTCTAG) | 0.256
